# Tested on: MCF-10A cells
# Assay: 1H NMR metabolomics of polar (aqueous) cell extracts
# Type: cell-based, human
# Conditions: BA 5µM
# Description: MDA-MB-231 and MCF-10A cells were seeded in 10-cm-diameter Petri dishes at a density of 6 × 10^5 cells/mL (10 mL per dish) and cultured for 24 h at 37 °C. […] Vehicle solvent control cells received DMSO (0.10% v/v). Samples were collected immediately after 48 h incubation or, to assess cellular recovery, medium was replaced with fresh growth medium (without TAs), and cells were incubated for additional 24 h before collection (48 + 24 h samples). Four independent assays were performed.
# After incubation, culture medium was collected and centrifuged (1000× g, 5 min) and the supernatant stored at −80 °C until analysis. Culture medium without cells was placed under the same conditions and collected. Cell extraction was performed as described by Carrola et al.. Briefly, cells were washed four times with PBS and extracted with a mixture of methanol:chloroform:water (1:1:0.7). The resulting polar and organic phases were collected and then dried under vacuum or under a stream of nitrogen gas, respectively. All samples were stored at −80 °C and, at the time of analysis, dried polar extracts were reconstituted in 600 µL of deuterated phosphate buffer (100 mM, pH 7.4) containing 0.1 mM TSP-d4, while organic extracts were reconstituted in deuterated chloroform containing 0.03% TMS. Regarding medium samples, 540 μL were mixed with 60 μL of D2O containing 0.25% TSP-d4. Prior to analysis, 550 μL of each sample were transferred to 5 mm NMR tubes.
# ^1H NMR spectra of all samples were acquired on a Bruker Avance III HD 500 NMR spectrometer (University of Aveiro, Portuguese NMR Network) operating at 500.13 MHz for ^1H observation equipped with a 5 mm TXI probe. Standard 1D spectra (Bruker pulse programs ‘noesypr1d’, with water suppression, for medium samples and aqueous extracts, and ‘zg’ for organic extracts) were recorded with a 7002.8 Hz spectral width, 32 k data points, a 2 s relaxation delay and 512 scans. Spectral processing comprised exponential multiplication with 0.3 Hz line broadening, zero filling to 64 k data points, manual phasing, baseline correction, and chemical shift calibration to the TSP or TMS signal at 0 ppm. 2D ^1H-^1H total correlation (TOCSY) spectra, ^1H-^13C heteronuclear single quantum correlation (HSQC) spectra and J-resolved spectra were also registered for selected samples to assist spectral assignment. Metabolites were identified with the support of 2D spectra and the spectral reference databases BBIOREFCODE-2-0-0 (Bruker Biospin, Rheinstetten, Germany) and HMDB [28]. Selected signals were then integrated using the AmixViewer software […] (version 3.9.14, Bruker BioSpin, Rheinstetten, Germany) and normalized by the total spectral area. The magnitude of each metabolite change was assessed through the percentage of variation (and its respective error) in exposed samples relatively to controls, and through the effect size (ES) adjusted for small sample numbers (and respective standard error). Metabolite variations with absolute ES greater than 0.8 were expressed in a heatmap, colored as a function of the percentage of variation, employing the R statistical software.
structure (smiles),measurement,setting,value
"C=C(C)[C@@H]1CC[C@]2(C(=O)O)CC[C@]3(C)[C@H](CC[C@@H]4[C@@]5(C)CC[C@H](O)C(C)(C)[C@@H]5CC[C@]43C)[C@@H]12 [BA, betulinic acid]",1-MethyInicotinamide %var,48h,152.75%
same,3-Hydroxyisobutyrate %var,48h,-48.45%
same,ATP %var,48h,0%
same,Acetate %var,48h,33.50%
same,Ala %var,48h,-39.74%
same,Asp %var,48h,-48.70%
same,Choline %var,48h,46.22%
same,Citrate %var,48h,-74.68%
same,Cr %var,48h,59.47%
same,Dimethylamine %var,48h,-40.51%
same,Formate %var,48h,91.07%
same,Fumarate %var,48h,-80.00%
same,GPC %var,48h,307.70%
same,GSH %var,48h,-31.85%
same,Gln %var,48h,0%
same,Glu %var,48h,-75.91%
same,Glucose %var,48h,-56.45%
same,Glucose-1-phosphate %var,48h,-93.58%
same,Gly %var,48h,41.70%
same,His %var,48h,-25.16%
same,Ile %var,48h,218.16%
same,Lactate %var,48h,161.49%
same,Leu %var,48h,418.85%
same,NADH %var,48h,62.88%
same,PC %var,48h,-78.42%
same,PCr %var,48h,0%
same,Phe %var,48h,0%
same,Pro %var,48h,80.04%
same,Tyr %var,48h,-16.91%
same,UDP-GalNAc %var,48h,123.58%
same,UDP-GlcNAc %var,48h,151.53%
same,UDP-Glucose %var,48h,-75.09%
same,Val %var,48h,138.35%
same,myo -Lno %var,48h,-19.23%
same,number of polar metabolites with altered intracellular levels,48h,31
same,1-MethyInicotinamide %var,48h+24h,56.61%
same,3-Hydroxyisobutyrate %var,48h+24h,-48.51%
same,ATP %var,48h+24h,0%
same,Acetate %var,48h+24h,63.78%
same,Ala %var,48h+24h,-65.18%
same,Asp %var,48h+24h,-24.38%
same,Choline %var,48h+24h,0%
same,Citrate %var,48h+24h,-61.27%
same,Cr %var,48h+24h,0%
same,Dimethylamine %var,48h+24h,0%
same,Formate %var,48h+24h,287.80%
same,Fumarate %var,48h+24h,0%
same,GPC %var,48h+24h,188.81%
same,GSH %var,48h+24h,-24.73%
same,Gln %var,48h+24h,0%
same,Glu %var,48h+24h,-47.27%
same,Glucose %var,48h+24h,0%
same,Glucose-1-phosphate %var,48h+24h,-92.25%
same,Gly %var,48h+24h,0%
same,His %var,48h+24h,-44.80%
same,Ile %var,48h+24h,36.26%
same,Lactate %var,48h+24h,0%
same,Leu %var,48h+24h,75.04%
same,NADH %var,48h+24h,0%
same,PC %var,48h+24h,0%
same,PCr %var,48h+24h,0%
same,Phe %var,48h+24h,-24.03%
same,Pro %var,48h+24h,0%
same,Tyr %var,48h+24h,-36.13%
same,UDP-GalNAc %var,48h+24h,0%
same,UDP-GlcNAc %var,48h+24h,0%
same,UDP-Glucose %var,48h+24h,-66.89%
same,Val %var,48h+24h,10.36%
same,myo -Lno %var,48h+24h,-52.77%

# Source: article PMC7464159, “Triple Negative Breast Cancer and Breast Epithelial Cells Differentially Reprogram Glucose and Lipid Metabolism upon Treatment with Triterpenic Acids” (Biomolecules, 2020)
